Test results: ChEMBL document CHEMBL5505963, “Novel berberine derivatives as p300 histone acetyltransferase inhibitors in combination treatment for breast cancer” (Eur J Med Chem, 2024)

Assays:
[1] = biological target: Histone acetyltransferase p300 (Homo sapiens, UniProt Q09472); assay: Inhibition of p300 HAT (unknown origin) using 3H-acetyl-CoA as substrate assessed as H3 peptide acetylation preincubated with compound for 15 mins followed by substrate addition and measured after 30 mins by microbeta scintillation counter analysis
PANC-1 = assay: Antiproliferative activity against human PANC-1 cells assessed as inhibition of cell growth incubated for 48 hrs by MTT assay; type: functional, cell-based; details: PANC-1, 48 h
LNCaP = assay: Antiproliferative activity against human LNCaP cells assessed as inhibition of cell growth incubated for 48 hrs by MTT assay; type: functional, cell-based
MCF-10A = assay: Antiproliferative activity against human MCF-10A cells assessed as inhibition of cell growth incubated for 48 hrs by MTT assay; type: functional, cell-based
MCF7 = assay: Antiproliferative activity against human MCF7 cells assessed as inhibition of cell growth incubated for 48 hrs by MTT assay; type: functional, cell-based; details: MCF7, 48 h

Histone acetyltransferase p300, sequence (Q09472 whole entry): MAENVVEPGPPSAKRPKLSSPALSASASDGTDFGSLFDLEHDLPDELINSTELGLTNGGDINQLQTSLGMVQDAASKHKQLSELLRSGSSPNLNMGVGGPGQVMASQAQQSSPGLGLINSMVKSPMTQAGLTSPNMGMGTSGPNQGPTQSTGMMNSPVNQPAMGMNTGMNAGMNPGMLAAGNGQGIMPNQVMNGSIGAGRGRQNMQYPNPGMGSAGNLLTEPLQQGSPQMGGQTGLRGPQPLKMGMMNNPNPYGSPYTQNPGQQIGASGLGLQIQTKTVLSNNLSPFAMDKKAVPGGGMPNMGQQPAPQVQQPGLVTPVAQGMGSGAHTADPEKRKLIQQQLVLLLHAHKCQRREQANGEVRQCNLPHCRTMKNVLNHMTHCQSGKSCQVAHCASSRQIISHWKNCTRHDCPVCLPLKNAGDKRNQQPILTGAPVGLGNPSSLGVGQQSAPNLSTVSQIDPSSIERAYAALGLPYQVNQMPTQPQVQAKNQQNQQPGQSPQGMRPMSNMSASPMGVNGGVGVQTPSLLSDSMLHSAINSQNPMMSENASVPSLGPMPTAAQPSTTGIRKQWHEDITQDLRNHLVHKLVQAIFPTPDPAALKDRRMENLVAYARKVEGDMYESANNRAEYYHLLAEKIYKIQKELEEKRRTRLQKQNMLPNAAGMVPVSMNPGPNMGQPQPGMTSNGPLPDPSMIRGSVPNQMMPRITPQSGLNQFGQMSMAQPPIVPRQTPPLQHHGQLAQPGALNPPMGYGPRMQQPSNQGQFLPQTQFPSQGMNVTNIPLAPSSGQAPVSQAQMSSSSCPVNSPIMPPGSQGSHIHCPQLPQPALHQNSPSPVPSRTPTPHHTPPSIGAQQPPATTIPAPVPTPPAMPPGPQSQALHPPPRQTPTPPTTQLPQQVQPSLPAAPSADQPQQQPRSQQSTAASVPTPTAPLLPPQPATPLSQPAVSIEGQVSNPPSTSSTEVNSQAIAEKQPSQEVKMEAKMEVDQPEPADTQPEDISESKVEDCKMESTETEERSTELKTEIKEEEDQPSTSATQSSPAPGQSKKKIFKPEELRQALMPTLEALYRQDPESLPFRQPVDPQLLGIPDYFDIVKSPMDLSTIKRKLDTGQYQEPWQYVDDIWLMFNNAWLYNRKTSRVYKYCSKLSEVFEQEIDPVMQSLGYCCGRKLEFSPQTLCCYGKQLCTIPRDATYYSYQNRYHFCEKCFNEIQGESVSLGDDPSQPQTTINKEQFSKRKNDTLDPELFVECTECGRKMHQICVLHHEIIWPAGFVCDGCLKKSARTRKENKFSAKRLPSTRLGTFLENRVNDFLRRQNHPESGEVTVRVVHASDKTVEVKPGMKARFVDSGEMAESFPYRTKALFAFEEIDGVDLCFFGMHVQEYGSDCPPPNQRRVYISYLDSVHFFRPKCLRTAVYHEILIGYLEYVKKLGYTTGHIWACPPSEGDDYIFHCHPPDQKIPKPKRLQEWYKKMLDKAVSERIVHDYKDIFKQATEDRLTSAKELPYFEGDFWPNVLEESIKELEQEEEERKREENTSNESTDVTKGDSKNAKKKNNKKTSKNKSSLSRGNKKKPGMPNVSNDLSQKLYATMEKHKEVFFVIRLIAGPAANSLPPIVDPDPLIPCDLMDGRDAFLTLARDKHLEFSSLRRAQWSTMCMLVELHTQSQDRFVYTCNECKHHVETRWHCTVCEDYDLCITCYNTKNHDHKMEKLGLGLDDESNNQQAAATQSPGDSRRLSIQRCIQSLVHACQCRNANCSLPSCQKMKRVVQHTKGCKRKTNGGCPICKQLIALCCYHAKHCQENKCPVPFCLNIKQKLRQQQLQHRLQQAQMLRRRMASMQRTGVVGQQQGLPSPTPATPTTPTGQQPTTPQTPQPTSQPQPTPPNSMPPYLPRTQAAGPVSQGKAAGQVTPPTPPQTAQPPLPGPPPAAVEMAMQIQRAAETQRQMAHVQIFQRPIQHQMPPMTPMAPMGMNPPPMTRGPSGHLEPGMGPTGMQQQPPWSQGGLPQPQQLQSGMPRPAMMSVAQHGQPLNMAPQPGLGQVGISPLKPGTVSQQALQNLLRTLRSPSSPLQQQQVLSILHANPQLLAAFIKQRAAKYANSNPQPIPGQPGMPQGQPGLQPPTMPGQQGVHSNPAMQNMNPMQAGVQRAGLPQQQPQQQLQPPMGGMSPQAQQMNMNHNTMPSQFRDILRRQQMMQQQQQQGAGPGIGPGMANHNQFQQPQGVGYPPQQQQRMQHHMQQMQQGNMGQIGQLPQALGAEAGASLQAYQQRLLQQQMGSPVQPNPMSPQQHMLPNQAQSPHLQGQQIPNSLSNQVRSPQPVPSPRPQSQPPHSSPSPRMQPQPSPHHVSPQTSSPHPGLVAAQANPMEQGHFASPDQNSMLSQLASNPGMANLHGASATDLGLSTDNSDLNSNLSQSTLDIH

SMILES	IC50 [1] [µM]	IC50 (PANC-1) [µM]	IC50 (LNCaP) [µM]	IC50 (MCF-10A) [µM]	IC50 (MCF7) [µM]
COc1ccc2cc3[n+](cc2c1OC)CCc1cc2c(cc1-3)OCO2 [BERBERINE CHLORIDE]	8.91	> 50	> 50	> 50	> 50
COc1cc2cc3[n+](cc2cc1OC)CCCS(=O)(=O)c1cc2c(cc1-3)OCO2	> 20				
COc1cc2cc3[n+](cc2cc1OC)CCSc1cc2c(cc1-3)OCO2	4.65	49.5	28.6	> 50	34.9
COc1ccc2cc3[n+](cc2c1OC)CCSc1cc2c(cc1-3)OCO2	10.3				
COc1cc2cc3[n+](cc2cc1OC)CCCNc1cc2c(cc1-3)OCO2	9.69				
COc1cc2cc3[n+](cc2cc1OC)CCNc1cc2c(cc1-3)OCO2	3.39	> 50	> 50	> 50	36.7
COc1cc2cc3[n+](cc2cc1OC)CCOCCOc1cc2c(cc1-3)OCO2	5.87				
COc1cc2cc3[n+](cc2cc1OC)CCCSc1cc2c(cc1-3)OCO2	11.5				
COc1ccc2cc3[n+](cc2c1OC)CCCOc1cc2c(cc1-3)OCO2	> 20				
COc1cc2cc3[n+](cc2cc1OC)CCCOc1cc2c(cc1-3)OCO2	3.69	38.6	33.5	> 50	37.8
COc1cc2cc3[n+](cc2cc1OC)CCS(=O)(=O)c1cc2c(cc1-3)OCO2	11.3				
C1=CC2C=C3c4cc5c(cc4NCC[N+]3=CC2S1)OCO5 (centres undefined)	7				
COc1cc2cc3[n+](cc2cc1OC)CCCCOc1cc2c(cc1-3)OCO2	> 20				
